Where two headings read alike, the source gives them in different places.
Legend:
Daphnia sp. = settings: for Classification (aquatic toxicity): based on Daphnia 48 hours EC50
Fish = assay: Experimental fish 96-hour acute toxicity (values in brackets in Table 4); type: in vivo; settings: experimental result (value in brackets)

Compound	Biodegradability (day 0, 20° C.)	Biodegradability (day 1, 20° C.)	Biodegradability (day 2, 20° C.)	Biodegradability (day 3, 20° C.)	Biodegradability (day 4, 20° C.)	Biodegradability (day 5, 20° C.)	Biodegradability (day 6, 20° C.)	Biodegradability (day 7, 20° C.)	Biodegradability (day 8, 20° C.)	Biodegradability (day 9, 20° C.)	Biodegradability (day 10, 20° C.)	Biodegradability (day 11, 20° C.)	Biodegradability (day 12, 20° C.)	Biodegradability (day 13, 20° C.)	Biodegradability (day 14, 20° C.)	Biodegradability (day 15, 20° C.)	Biodegradability (day 16, 20° C.)	Biodegradability (day 17, 20° C.)	Biodegradability (day 18, 20° C.)	Classification (aquatic toxicity) (Daphnia sp.)	other results
COCCOCCOCCNC(C)(C)C [B, Methoxyethoxyethoxyethanol-tert-butylamine]	0	0.00	0.20	0.30	0.60	1.02	1.54	2.09	3.00	3.81	1.89	3.82	4.04	4.70	5.70	6.03	6.56	7.14	7.65	No classification	Biodegradability (day 19, 20° C.): 9.52; Biodegradability (day 20, 20° C.): 7.55; Biodegradability (day 21, 20° C.): 7.55; Biodegradability (day 22, 20° C.): 7.55; Biodegradability (day 23, 20° C.): 7.55; Biodegradability (day 24, 20° C.): 7.55; Biodegradability (day 25, 20° C.): 7.55; Biodegradability (day 26, 20° C.): 7.55; Biodegradability (day 27, 20° C.): 7.55; Biodegradability (day 28, 20° C.): 7.55; Daphnia Experimental, 48 hours, EC50 (Daphnia sp.; experimental, 48 hours): EC50 > 100 mg/l
CC(C)(C)NCCOCCOCCNC(C)(C)C [D, Bis-(t-butylamino ethoxy)ethane (bis-(t-butylamino)triethylene glycol)]																				Harmful to aquatic	
Ethoxyethanol-tert-butylamine (tert-butylamino-ethoxy-ethanol)	0	0.05	0.00	0.00	0.00	0.00	0.00	0.06	1.68	3.34	0.47	0.56	0.76	0.91	1.04	1.16	1.33	1.51	1.56	Harmful to aquatic	Fish 96-hour LC50 (Fish): 225 µg/mL; Biodegradability (day 19, 20° C.): 1.58; Biodegradability (day 20, 20° C.): 1.71; Biodegradability (day 21, 20° C.): 1.89; Biodegradability (day 22, 20° C.): 2.00; Biodegradability (day 23, 20° C.): 1.95; Biodegradability (day 24, 20° C.): 2.00; Biodegradability (day 25, 20° C.): 2.06; Biodegradability (day 26, 20° C.): 2.06; Biodegradability (day 27, 20° C.): 2.06; Biodegradability (day 28, 20° C.): 2.06; Daphnia 48-hour LC50 (Daphnia sp.; experimental result (value in brackets)): 31.6 µg/mL

— patent publication US20130142717A1, “OFFSHORE GAS SEPARATION PROCESS” (priority 2011, published 2013)
